#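 48-hour exposure; five concentrations; linearly interpolated endpoints. At the GI50, growth is halved.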 Calls of active or inactive are those of the source. No stated cut-off is given here; in the data, active = GI50 up to about 1.1 µM and inactive = higher.
# What was measured:
# Assay in all cases: inhibition of tumour cell growth, NCI panel, 48 h
# SNB-19 = system: SNB-19
# Malme-3M = system: Malme-3M
# HT-29 = system: HT-29
# NCI-H522 = system: NCI-H522
# COLO 205 = system: COLO 205
# SW-620 = system: SW-620
# HCT-116 = system: HCT-116
# MCF7 = system: MCF7
# M14 = system: M14
# SF-268 = system: SF-268
# OVCAR-3 = system: OVCAR-3
# 786-0 = system: 786-0
# OVCAR-8 = system: OVCAR-8
# UACC-62 = system: UACC-62
# SK-OV-3 = system: SK-OV-3
# CCRF-CEM = system: CCRF-CEM
# HCT-15 = system: HCT-15
# EKVX = system: EKVX
# SK-MEL-28 = system: SK-MEL-28
# MDA-N = system: MDA-N
# NCI-H23 = system: NCI-H23
# SK-MEL-5 = system: SK-MEL-5
# HOP-92 = system: HOP-92
# OVCAR-5 = system: OVCAR-5
# SNB-75 = system: SNB-75
# U-251 = system: U-251
# MDA-MB-435 = system: MDA-MB-435
# RPMI-8226 = system: RPMI-8226
# TK-10 = system: TK-10
# DU-145 = system: DU-145
# MDA-MB-231 = system: MDA-MB-231
# Hs-578T = system: Hs-578T
# SR = system: SR
# SN12C = system: SN12C
# NCI-H226 = system: NCI-H226
# A498 = system: A498
# PC-3 = system: PC-3
# SK-MEL-2 = system: SK-MEL-2
# MOLT-4 = system: MOLT-4
# UO-31 = system: UO-31
# NCI/ADR-RES = system: NCI/ADR-RES
# LOX IMVI = system: LOX IMVI
# IGROV-1 = system: IGROV-1
# ACHN = system: ACHN
# K562 = system: K562
# A549 = system: A549
# KM12 = system: KM12
# SF-295 = system: SF-295
# HOP-62 = system: HOP-62
# HL-60 = system: HL-60
# HCC 2998 = system: HCC 2998
# OVCAR-4 = system: OVCAR-4
# CAKI-1 = system: CAKI-1
# UACC-257 = system: UACC-257
# NCI-H460 = system: NCI-H460
# RXF 393 = system: RXF 393
# SF-539 = system: SF-539
smiles,measurement,setting,value
CCSC1=N/C(=C\c2ccco2)C(Nc2ccc(C)cc2)=N1,GI50,SNB-19,> 100 µM (inactive)
same,GI50,Malme-3M,52 µM (inactive)
same,GI50,HT-29,> 100 µM (inactive)
same,GI50,NCI-H522,> 100 µM (inactive)
same,GI50,COLO 205,> 100 µM (inactive)
same,GI50,SW-620,> 100 µM (inactive)
same,GI50,HCT-116,> 100 µM (inactive)
same,GI50,MCF7,> 100 µM (inactive)
same,GI50,M14,> 100 µM (inactive)
same,GI50,SF-268,> 100 µM (inactive)
same,GI50,OVCAR-3,> 100 µM (inactive)
same,GI50,786-0,> 100 µM (inactive)
same,GI50,OVCAR-8,> 100 µM (inactive)
same,GI50,UACC-62,> 100 µM (inactive)
same,GI50,SK-OV-3,> 100 µM (inactive)
same,GI50,CCRF-CEM,> 100 µM (inactive)
same,GI50,HCT-15,> 100 µM
same,GI50,EKVX,> 100 µM (inactive)
same,GI50,SK-MEL-28,> 100 µM (inactive)
same,GI50,MDA-N,> 100 µM (inactive)
same,GI50,NCI-H23,> 100 µM (inactive)
same,GI50,SK-MEL-5,> 100 µM (inactive)
same,GI50,HOP-92,> 100 µM (inactive)
same,GI50,OVCAR-5,> 100 µM (inactive)
same,GI50,SNB-75,> 100 µM (inactive)
same,GI50,U-251,> 100 µM (inactive)
same,GI50,MDA-MB-435,> 100 µM (inactive)
same,GI50,RPMI-8226,> 100 µM (inactive)
same,GI50,TK-10,> 100 µM (inactive)
same,GI50,DU-145,> 100 µM (inactive)
same,GI50,MDA-MB-231,> 100 µM (inactive)
same,GI50,Hs-578T,> 100 µM (inactive)
same,GI50,SR,> 100 µM (inactive)
same,GI50,SN12C,> 100 µM (inactive)
same,GI50,NCI-H226,> 100 µM (inactive)
same,GI50,A498,> 100 µM (inactive)
same,GI50,PC-3,> 100 µM (inactive)
same,GI50,SK-MEL-2,> 100 µM (inactive)
same,GI50,MOLT-4,> 100 µM (inactive)
same,GI50,UO-31,> 100 µM (inactive)
same,GI50,NCI/ADR-RES,> 100 µM (inactive)
same,GI50,LOX IMVI,> 100 µM (inactive)
same,GI50,IGROV-1,60.5 µM (inactive)
same,GI50,ACHN,> 100 µM (inactive)
same,GI50,K562,> 100 µM (inactive)
same,GI50,A549,> 100 µM (inactive)
same,GI50,KM12,> 100 µM (inactive)
same,GI50,SF-295,> 100 µM (inactive)
same,GI50,HOP-62,> 100 µM (inactive)
O=CC(O)C(O)C(O)C(O)COP(=O)(O)Cc1ccccc1 (stereo unspecified),GI50,Malme-3M,> 10 µM (inactive)
same,GI50,COLO 205,> 10 µM (inactive)
same,GI50,M14,> 10 µM (inactive)
same,GI50,UACC-62,> 10 µM (inactive)
same,GI50,CCRF-CEM,> 10 µM (inactive)
same,GI50,HL-60,> 10 µM (inactive)
same,GI50,MDA-MB-435,> 10 µM (inactive)
same,GI50,MOLT-4,> 10 µM (inactive)
same,GI50,IGROV-1,> 10 µM (inactive)
O=P1(N2CCOCC2)OCCO1,GI50,SNB-19,> 100 µM (inactive)
same,GI50,Malme-3M,> 100 µM (inactive)
same,GI50,HT-29,> 100 µM (inactive)
same,GI50,NCI-H522,> 100 µM (inactive)
same,GI50,COLO 205,> 100 µM (inactive)
same,GI50,SW-620,> 100 µM (inactive)
same,GI50,HCT-116,> 100 µM (inactive)
same,GI50,MCF7,> 100 µM (inactive)
same,GI50,HCC 2998,> 100 µM (inactive)
same,GI50,M14,> 100 µM (inactive)
same,GI50,OVCAR-4,> 100 µM (inactive)
same,GI50,CAKI-1,> 100 µM (inactive)
same,GI50,UACC-257,> 100 µM (inactive)
same,GI50,SF-268,> 100 µM (inactive)
same,GI50,786-0,> 100 µM (inactive)
same,GI50,UACC-62,> 100 µM (inactive)
same,GI50,CCRF-CEM,> 100 µM (inactive)
same,GI50,HCT-15,> 100 µM
same,GI50,EKVX,> 100 µM (inactive)
same,GI50,SK-MEL-28,> 100 µM (inactive)
same,GI50,MDA-N,> 100 µM (inactive)
same,GI50,NCI-H23,> 100 µM (inactive)
same,GI50,SK-MEL-5,> 100 µM (inactive)
same,GI50,HOP-92,> 100 µM (inactive)
same,GI50,OVCAR-5,> 100 µM (inactive)
same,GI50,HL-60,> 100 µM (inactive)
same,GI50,U-251,> 100 µM (inactive)
same,GI50,MDA-MB-435,> 100 µM (inactive)
same,GI50,RPMI-8226,> 100 µM (inactive)
same,GI50,DU-145,> 100 µM (inactive)
same,GI50,NCI-H460,> 100 µM (inactive)
same,GI50,Hs-578T,> 100 µM (inactive)
same,GI50,SR,> 100 µM (inactive)
same,GI50,SN12C,> 100 µM (inactive)
same,GI50,A498,> 100 µM (inactive)
same,GI50,PC-3,> 100 µM (inactive)
same,GI50,RXF 393,> 100 µM (inactive)
same,GI50,MOLT-4,> 100 µM (inactive)
same,GI50,UO-31,> 100 µM (inactive)
same,GI50,NCI/ADR-RES,> 100 µM (inactive)
same,GI50,LOX IMVI,> 100 µM (inactive)
same,GI50,IGROV-1,> 100 µM (inactive)
same,GI50,ACHN,> 100 µM (inactive)
same,GI50,K562,> 100 µM (inactive)
same,GI50,A549,> 100 µM (inactive)
same,GI50,KM12,> 100 µM (inactive)
same,GI50,SF-295,> 100 µM (inactive)
Cc1ncc([N+](=O)[O-])n1CCNCCCn1ccnc1[N+](=O)[O-],GI50,Malme-3M,> 100 µM (inactive)
same,GI50,HT-29,> 100 µM (inactive)
same,GI50,NCI-H522,> 100 µM (inactive)
same,GI50,SW-620,> 100 µM (inactive)
same,GI50,HCT-116,> 100 µM (inactive)
same,GI50,MCF7,> 100 µM (inactive)
same,GI50,HCC 2998,> 100 µM (inactive)
same,GI50,UACC-257,> 100 µM (inactive)
same,GI50,SF-268,> 100 µM (inactive)
same,GI50,OVCAR-3,> 100 µM (inactive)
same,GI50,786-0,> 100 µM (inactive)
same,GI50,OVCAR-8,> 100 µM (inactive)
same,GI50,CCRF-CEM,> 100 µM (inactive)
same,GI50,HCT-15,> 100 µM
same,GI50,EKVX,> 10 µM (inactive)
same,GI50,SK-MEL-28,> 100 µM (inactive)
same,GI50,NCI-H23,> 100 µM (inactive)
same,GI50,SK-MEL-5,> 100 µM (inactive)
same,GI50,OVCAR-5,75.3 µM (inactive)
same,GI50,SF-539,> 100 µM (inactive)
same,GI50,HL-60,> 100 µM (inactive)
same,GI50,SNB-75,> 100 µM (inactive)
same,GI50,U-251,> 100 µM (inactive)
same,GI50,RPMI-8226,> 100 µM (inactive)
same,GI50,TK-10,70.3 µM (inactive)
same,GI50,NCI-H460,> 100 µM (inactive)
same,GI50,Hs-578T,> 100 µM (inactive)
same,GI50,SR,> 100 µM (inactive)
same,GI50,SN12C,> 100 µM (inactive)
same,GI50,NCI-H226,> 100 µM (inactive)
same,GI50,PC-3,> 100 µM (inactive)
same,GI50,SK-MEL-2,> 100 µM (inactive)
same,GI50,MOLT-4,> 100 µM (inactive)
same,GI50,K562,> 100 µM (inactive)
same,GI50,A549,> 100 µM (inactive)
same,GI50,KM12,> 100 µM (inactive)
same,GI50,SF-295,> 100 µM (inactive)
same,GI50,HOP-62,> 100 µM (inactive)
O=c1c2ccccc2nc2n1CCc1c-2[nH]c2ccc(Br)cc12,GI50,SNB-19,> 100 µM (inactive)
same,GI50,Malme-3M,> 100 µM (inactive)
same,GI50,HT-29,45.5 µM (inactive)
same,GI50,SW-620,59 µM (inactive)
same,GI50,HCT-116,48.9 µM (inactive)
same,GI50,M14,> 100 µM (inactive)
same,GI50,OVCAR-4,6.43 µM (inactive)
same,GI50,UACC-257,> 100 µM (inactive)
same,GI50,OVCAR-3,> 100 µM (inactive)
same,GI50,786-0,31.8 µM (inactive)
same,GI50,OVCAR-8,11.1 µM (inactive)
same,GI50,CCRF-CEM,> 100 µM (inactive)
same,GI50,EKVX,> 100 µM (inactive)
same,GI50,SK-MEL-28,> 100 µM (inactive)
same,GI50,NCI-H23,> 100 µM (inactive)
same,GI50,SK-MEL-5,46 µM (inactive)
same,GI50,HOP-92,91.2 µM (inactive)
same,GI50,OVCAR-5,> 100 µM (inactive)
same,GI50,RPMI-8226,> 100 µM (inactive)
same,GI50,DU-145,> 100 µM (inactive)
same,GI50,NCI-H460,> 100 µM (inactive)
same,GI50,Hs-578T,> 100 µM (inactive)
same,GI50,SR,> 100 µM (inactive)
same,GI50,NCI-H226,> 100 µM (inactive)
same,GI50,A498,> 100 µM (inactive)
same,GI50,MOLT-4,> 100 µM (inactive)
same,GI50,NCI/ADR-RES,> 100 µM (inactive)
same,GI50,LOX IMVI,> 100 µM (inactive)
same,GI50,IGROV-1,> 100 µM (inactive)
same,GI50,K562,> 100 µM (inactive)
same,GI50,A549,43.8 µM (inactive)
same,GI50,SF-295,8.61 µM (inactive)
same,GI50,HOP-62,16.3 µM (inactive)
